What all share (format): in vivo
In data set [1] the test system is Southern armyworm (Spodoptera eridania), 2nd instar larvae. Briefly: Southern armyworm foliar spray test on Lima bean plants. Conditions: 2nd instar larvae on sprayed Lima bean plants, 4 days after treatment. On the procedure: The active compounds were formulated by a Tecan liquid handler in 100% cyclohexanone as a 10,000-ppm solution supplied in tubes. The 10,000-ppm solution was serially diluted in 100% cyclohexanone to make interim solutions. These served as stock solutions for which final dilutions were made by the Tecan in 50% acetone:50% water (v/v) into 10 or 20ml glass vials. A non-ionic surfactant (Kinetic®) was included in the solution at a volume of 0.01% (v/v). The vials were then inserted into an automated electrostatic sprayer equipped with an atomizing nozzle for application to plants/insects. Lima bean plants (variety Sieva) were grown 2 plants to a pot and selected for treatment at the 1st true leaf stage. Test solutions were sprayed onto the foliage by an auto-mated electrostatic plant sprayer equipped with an atomizing spray nozzle. The plants were dried in the sprayer fume hood and then removed from the sprayer. Each pot was placed into perforated plastic bags with a zip closure. Ten to 11 armyworm larvae were placed into the bag and the bags zipped closed. Test plants were maintained in a growth room at about 25°C and about 20-40% relative humidity for 4 days, avoiding direct exposure to fluorescent light (14:10 light:dark photoperiod) to prevent trapping of heat inside the bags. Mortality and reduced feeding were assessed 4 days after treatment, compared to untreated control plants.

Data set [2] has as its system green peach aphid (Myzus persicae). Briefly: Green Peach Aphid systemic test, artificial diet in 96-well microtiter plates. Conditions: 72 h, adult aphids on treated diet, 3 days, read-out: mortality in comparison with untreated controls. The text has this:
For evaluating control of green peach aphid (Myzus persicae) through systemic means, the test unit consisted of 96-well-microtiter plates containing liquid artificial diet under an artificial mem brane.
The compounds were formulated using a solution containing 75% v/v water and 25% v/v DMSO. Different concentrations of formulated compounds were pipetted into the aphid diet, using a custom built pipetter, at two replications.
After application, 5 - 8 adult aphids were placed on the artificial membrane inside the microtiter plate wells. The aphids were then allowed to suck on the treated aphid diet and incubated at about 23 ± 1°C and about 50 ± 5 % relative humidity for 3 days. Aphid mortality and fecundity was then visually assessed.

Data set [3] has as its system boll weevil (Anthonomus grandis). Description: Boll weevil test, insect diet with eggs in 96-well microtiter plates. The note with it: 120 h, egg and larval mortality, 5 days, read-out: mortality in comparison with untreated controls. As for the experimental part:
For evaluating control of boll weevil (Anthonomus grandis), the test unit consisted of 96-well-microtiter plates containing an insect diet and 5-10 A. grandis eggs.
The compounds were formulated using a solution containing 75% v/v water and 25% v/v DMSO. Different concentrations of formulated compounds were sprayed onto the insect diet at 5 µl, using a custom-built micro atomizer, at two replications.
After application, microtiter plates were incubated at about 25 ± 1°C and about 75 ± 5 % relative humidity for 5 days. Egg and larval mortality was then visually assessed.

For data set [4], the system named is yellow fever mosquito (Aedes aegypti). Briefly: whole plant or invertebrate. Conditions: 48 h, larval mortality, 2 days, read-out: mortality in comparison with untreated controls. As for the experimental part:
For evaluating control of yellow fever mosquito (Aedes aegypti) the test unit consisted of 96-well-microtiter plates containing 200µl of tap water per well and 5-15 freshly hatched A. aegypti larvae.
The active compounds were formulated using a solution containing 75% (v/v) water and 25% (v/v) DMSO. Different concentrations of formulated compounds or mixtures were sprayed onto the insect diet at 2.5µl, using a custom-built micro atomizer, at two replications.
After application, microtiter plates were incubated at 28 ± 1°C, 80 ± 5 % RH for 2 days. Larval mortality was then visually assessed.

Data set [5] has as its system tobacco budworm (Heliothis virescens). Briefly: Tobacco budworm test, insect diet with eggs in 96-well microtiter plates. Conditions: 120 h, egg and larval mortality, 5 days, read-out: mortality in comparison with untreated controls. On the procedure:
For evaluating control of tobacco budworm (Heliothis virescens), the test unit consisted of 96-well-microtiter plates containing an insect diet and 15-25 H. virescens eggs.
The compounds were formulated using a solution containing 75% v/v water and 25% v/v DMSO. Different concentrations of formulated compounds were sprayed onto the insect diet at 10 µl using a custom-built micro atomizer, at two replications.
After application, microtiter plates were incubated at about 28 ± 1°C and about 80 ± 5 % relative humidity for 5 days. Egg and larval mortality was then visually assessed.

The results in this text go back to patent EP4140986A1, “PYRAZINE COMPOUNDS FOR THE CONTROL OF INVERTEBRATE PESTS” (BASF SE, priority 2021, dated 2023).

What is called mortality is the share of the test organisms that died.

For the molecule `CON=C(N)c1nccnc1C(C)N(CC1CC1)C(=O)c1cc(C(F)(F)F)cc(C(F)(F)F)c1` (stereo not drawn) [Compound I-4], the “mortality in comparison with untreated controls” value in data set [1] (300 ppm) is listed as “at least 75%”.
Take `CON=C(C)c1nccnc1C(C)NC(=O)c1cc(C(F)(F)F)cc(C(F)(F)F)c1` (stereo not drawn) [Compound I-1, N-[1-[3-[N-methoxy-C-methyl-carbonimidoyl]pyrazin-2-yl]ethyl]-3,5-bis(trifluoromethyl)benzamide]: the mortality at 2500 ppm in data set [2], in data set [3], in data set [4] and in data set [5] was at least 75% each time. The mortality at 300 ppm in data set [1] (Spodoptera eridania, foliar, 96 h, read-out: mortality in comparison with untreated controls) was at least 75%.
